Experimental data reported in US10670605B2, “Cysteine reactive probes and uses thereof” (The Scripps Research Institute, priority 2015, dated 2020).

Legend:
Experiment in all cases: Competitive isoTOP-ABPP in situ (fragment-treated cells)
Format in all cases: cell-based
[1] = target: T1, cysteines in MDA-MB-231 and Ramos cells (Homo sapiens, UniProt P51946)
T1 sequence (P51946 1-323): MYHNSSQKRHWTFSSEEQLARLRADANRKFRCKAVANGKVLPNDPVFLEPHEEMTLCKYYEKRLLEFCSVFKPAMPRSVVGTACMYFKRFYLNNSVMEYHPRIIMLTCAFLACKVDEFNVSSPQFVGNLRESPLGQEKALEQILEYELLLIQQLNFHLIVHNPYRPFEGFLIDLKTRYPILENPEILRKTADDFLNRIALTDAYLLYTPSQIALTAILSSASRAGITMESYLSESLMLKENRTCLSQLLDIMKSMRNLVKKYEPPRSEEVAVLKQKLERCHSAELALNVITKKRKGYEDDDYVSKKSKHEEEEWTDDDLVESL

[2] = target: T2, cysteines in MDA-MB-231 and Ramos cells (Homo sapiens, UniProt P31943)
T2 sequence (P31943 1-449): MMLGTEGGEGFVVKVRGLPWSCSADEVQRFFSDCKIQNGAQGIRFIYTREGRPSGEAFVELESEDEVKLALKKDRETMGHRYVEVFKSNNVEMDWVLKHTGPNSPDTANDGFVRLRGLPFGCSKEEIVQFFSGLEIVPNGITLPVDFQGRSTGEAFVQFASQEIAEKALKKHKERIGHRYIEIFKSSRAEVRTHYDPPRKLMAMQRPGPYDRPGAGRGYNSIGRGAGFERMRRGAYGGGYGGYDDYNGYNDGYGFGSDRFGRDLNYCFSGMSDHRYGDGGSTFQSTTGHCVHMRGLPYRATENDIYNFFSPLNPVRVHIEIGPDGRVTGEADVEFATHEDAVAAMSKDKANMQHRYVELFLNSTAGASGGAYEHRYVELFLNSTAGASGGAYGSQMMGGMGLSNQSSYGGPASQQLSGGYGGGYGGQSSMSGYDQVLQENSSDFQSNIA

[3] = target: cysteines in MDA-MB-231 and Ramos cells (Homo sapiens, UniProt P61978)
[4] = target: T3, cysteines in MDA-MB-231 and Ramos cells (Homo sapiens, UniProt Q9NQC3)
T3 sequence (Q9NQC3 1-1192): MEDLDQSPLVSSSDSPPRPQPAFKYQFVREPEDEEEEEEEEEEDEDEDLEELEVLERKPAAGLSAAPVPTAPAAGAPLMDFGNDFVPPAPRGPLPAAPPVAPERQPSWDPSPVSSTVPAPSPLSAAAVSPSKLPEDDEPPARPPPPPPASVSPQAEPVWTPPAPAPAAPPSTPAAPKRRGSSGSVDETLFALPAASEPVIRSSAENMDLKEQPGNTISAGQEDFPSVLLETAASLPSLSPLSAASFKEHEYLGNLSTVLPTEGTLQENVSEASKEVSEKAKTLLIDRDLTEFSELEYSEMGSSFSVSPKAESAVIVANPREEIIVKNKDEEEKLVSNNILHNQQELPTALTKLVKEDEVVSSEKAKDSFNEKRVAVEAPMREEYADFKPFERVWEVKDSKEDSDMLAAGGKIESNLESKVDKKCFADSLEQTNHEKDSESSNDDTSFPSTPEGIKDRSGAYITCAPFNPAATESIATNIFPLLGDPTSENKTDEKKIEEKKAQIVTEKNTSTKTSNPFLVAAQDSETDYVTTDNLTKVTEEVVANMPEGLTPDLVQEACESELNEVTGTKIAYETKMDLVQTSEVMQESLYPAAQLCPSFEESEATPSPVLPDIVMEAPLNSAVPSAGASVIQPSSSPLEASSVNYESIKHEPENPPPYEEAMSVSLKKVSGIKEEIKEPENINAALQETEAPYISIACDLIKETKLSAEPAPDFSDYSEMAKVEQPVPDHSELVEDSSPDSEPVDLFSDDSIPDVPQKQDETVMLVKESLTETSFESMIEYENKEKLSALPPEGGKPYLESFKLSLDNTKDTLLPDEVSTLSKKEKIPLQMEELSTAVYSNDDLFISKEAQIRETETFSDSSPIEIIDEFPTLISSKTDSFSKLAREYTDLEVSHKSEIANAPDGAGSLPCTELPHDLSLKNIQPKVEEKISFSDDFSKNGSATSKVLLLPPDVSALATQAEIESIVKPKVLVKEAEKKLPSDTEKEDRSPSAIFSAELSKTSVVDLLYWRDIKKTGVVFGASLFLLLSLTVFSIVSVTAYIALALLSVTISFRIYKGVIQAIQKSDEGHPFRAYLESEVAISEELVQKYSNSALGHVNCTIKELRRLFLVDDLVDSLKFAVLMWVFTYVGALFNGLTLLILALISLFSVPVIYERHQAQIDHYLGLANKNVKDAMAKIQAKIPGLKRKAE

[5] = target: T4, cysteines in MDA-MB-231 and Ramos cells (Homo sapiens, UniProt Q9NRG0)
T4 sequence (Q9NRG0 1-131): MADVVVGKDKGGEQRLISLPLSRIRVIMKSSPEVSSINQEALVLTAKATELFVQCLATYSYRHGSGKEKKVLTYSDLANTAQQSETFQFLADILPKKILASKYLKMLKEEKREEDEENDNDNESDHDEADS

[6] = target: cysteines in MDA-MB-231 and Ramos cells (Homo sapiens, UniProt Q9NYL2)
cysteines in MDA-MB-231 and Ramos cells (Homo sapiens, UniProt Q9NYL2), sequence (Q9NYL2 whole entry): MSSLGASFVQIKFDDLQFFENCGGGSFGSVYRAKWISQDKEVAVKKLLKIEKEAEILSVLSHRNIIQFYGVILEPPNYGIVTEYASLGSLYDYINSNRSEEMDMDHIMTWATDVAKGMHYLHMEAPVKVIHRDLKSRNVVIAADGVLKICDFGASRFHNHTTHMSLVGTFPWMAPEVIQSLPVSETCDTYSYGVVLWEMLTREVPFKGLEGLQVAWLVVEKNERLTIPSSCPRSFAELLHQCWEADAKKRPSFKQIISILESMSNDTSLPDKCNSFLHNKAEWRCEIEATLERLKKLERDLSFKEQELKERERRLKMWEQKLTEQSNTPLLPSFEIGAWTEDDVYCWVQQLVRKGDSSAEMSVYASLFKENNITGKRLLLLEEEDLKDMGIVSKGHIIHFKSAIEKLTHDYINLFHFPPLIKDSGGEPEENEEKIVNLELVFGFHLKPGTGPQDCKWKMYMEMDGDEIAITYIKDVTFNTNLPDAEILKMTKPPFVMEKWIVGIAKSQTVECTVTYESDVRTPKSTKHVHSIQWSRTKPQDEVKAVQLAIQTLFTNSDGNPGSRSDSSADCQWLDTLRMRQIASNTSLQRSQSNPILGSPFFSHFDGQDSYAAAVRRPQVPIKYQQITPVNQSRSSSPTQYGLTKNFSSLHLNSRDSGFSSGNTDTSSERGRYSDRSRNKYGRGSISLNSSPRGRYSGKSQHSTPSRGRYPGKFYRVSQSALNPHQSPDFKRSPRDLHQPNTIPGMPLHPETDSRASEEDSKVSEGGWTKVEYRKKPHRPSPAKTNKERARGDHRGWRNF

SMILES	isoTOP-ABPP ratio P51946_C244 ([1]; 200 μM, insitu, 231)	isoTOP-ABPP ratio P31943_C267 ([2]; 200 μM, insitu, 231)	isoTOP-ABPP ratio P61978_C132 ([3]; 200 μM, insitu, 231)	isoTOP-ABPP ratio Q9NQC3_C1101 ([4]; 200 μM, insitu, 231)	isoTOP-ABPP ratio Q9NRG0_C55 ([5]; 200 μM, insitu, 231)	isoTOP-ABPP ratio Q9NYL2_C22 ([6]; 200 μM, insitu, 231)	also measured
COc1ccc2c(c1)CCCN2C(=O)CCl [compound 2]							isoTOP-ABPP reactivity P51946_C244 CCNH ([1]; 200 μM, insitu, 231): 1.9; isoTOP-ABPP reactivity P31943_C267 HNRNPH1 ([2]; 200 μM, insitu, 231): 3.8; isoTOP-ABPP reactivity P61978_C132 HNRNPK ([3]; 200 μM, insitu, 231): 5.0; isoTOP-ABPP reactivity Q9NQC3_C1101 RTN4 ([4]; 200 μM, insitu, 231): 12.0; isoTOP-ABPP reactivity Q9NRG0_C55 CHRAC1 ([5]; 200 μM, insitu, 231): 20.0; isoTOP-ABPP reactivity Q9NYL2_C22 MUTK Mitogen-activated protein kinase MLTK ([6]; 200 μM, insitu, 231): 5.5
COc1ccc(C2CC(c3cccs3)=NN2C(=O)CCl)cc1 (centres unmarked) [compound 4]							isoTOP-ABPP reactivity P51946_C244 CCNH ([1]; 100 μM in situ 231): 5.3; isoTOP-ABPP reactivity P31943_C267 HNRNPH1 ([2]; 100 μM in situ 231): 6.0; isoTOP-ABPP reactivity P61978_C132 HNRNPK ([3]; 100 μM in situ 231): 3.8; isoTOP-ABPP reactivity Q9NQC3_C1101 RTN4 ([4]; 100 μM in situ 231): 20.0; isoTOP-ABPP reactivity Q9NRG0_C55 CHRAC1 ([5]; 100 μM in situ 231): 20.0; isoTOP-ABPP reactivity Q9NYL2_C22 MUTK Mitogen-activated protein kinase MLTK ([6]; 100 μM in situ 231): 20.0
COc1cc2c(cc1OC)CN(C(=O)CCl)CC2 [compound 8]							isoTOP-ABPP reactivity P31943_C267 HNRNPH1 ([2]; 200 μM, insitu, 231): 5.3; isoTOP-ABPP reactivity P61978_C132 HNRNPK ([3]; 200 μM, insitu, 231): 4.2; isoTOP-ABPP reactivity Q9NRG0_C55 CHRAC1 ([5]; 200 μM, insitu, 231): 7.4; isoTOP-ABPP reactivity Q9NYL2_C22 MUTK Mitogen-activated protein kinase MLTK ([6]; 200 μM, insitu, 231): 1.4
O=C(CCl)N1CCC(Cc2ccccc2)CC1 [compound 9]							isoTOP-ABPP reactivity P31943_C267 HNRNPH1 ([2]; 200 μM, insitu, 231): 2.1; isoTOP-ABPP reactivity P61978_C132 HNRNPK ([3]; 200 μM, insitu, 231): 1.4; isoTOP-ABPP reactivity Q9NQC3_C1101 RTN4 ([4]; 200 μM, insitu, 231): 20.0; isoTOP-ABPP reactivity Q9NRG0_C55 CHRAC1 ([5]; 200 μM, insitu, 231): 2.9; isoTOP-ABPP reactivity Q9NYL2_C22 MUTK Mitogen-activated protein kinase MLTK ([6]; 200 μM, insitu, 231): 10.3
O=C(CCl)N1CCN(S(=O)(=O)c2ccccc2F)CC1 [compound 10]	1.7	4.8	5.6	20.0	2.7	1.2	isoTOP-ABPP ratio P31943_C267 ([2]; 200 μM, insitu, ramos): 2.5; isoTOP-ABPP ratio P61978_C132 ([3]; 200 μM, insitu, ramos): 1.6
Cn1cc(S(=O)(=O)N2CCOCC2)cc1C(=O)NC(=O)CCl [compound 11]							isoTOP-ABPP ratio P51946_C244 ([1]; 100 μM in situ 231): 1.3; isoTOP-ABPP ratio P31943_C267 ([2]; 100 μM in situ 231): 0.9; isoTOP-ABPP ratio P61978_C132 ([3]; 100 μM in situ 231): 0.9; isoTOP-ABPP ratio Q9NQC3_C1101 ([4]; 100 μM in situ 231): 1.1; isoTOP-ABPP ratio Q9NRG0_C55 ([5]; 100 μM in situ 231): 1.1; isoTOP-ABPP ratio Q9NYL2_C22 ([6]; 100 μM in situ 231): 0.7
O=C(CCl)NC(=O)NC12CC3CC(CC(C3)C1)C2 [compound 12]	1.3	5.0	7.5	20.0	20.0	0.7	
O=C(CCl)NCCc1c[nH]c2ccccc12 [compound 13]	1.0	1.1	1.1		1.2	1.3	isoTOP-ABPP ratio P51946_C244 ([1]; 200 μM, insitu, ramos): 1.2; isoTOP-ABPP ratio P31943_C267 ([2]; 200 μM, insitu, ramos): 1.2; isoTOP-ABPP ratio P61978_C132 ([3]; 200 μM, insitu, ramos): 1.1
O=C(CCl)NC12CC3CC(CC(C3)C1)C2 [compound 21]	1.4	1.5	1.4	2.1			
CC(C)CCOCCNC(=O)CCl [compound 27]	1.1	1.1	0.9	1.4	0.9	0.7	
COc1ccccc1OCCNC(=O)CCl [compound 28]			1.0				
O=C(CCl)N1CCN(CC(=O)N2CCOCC2)CC1 [compound 29]							isoTOP-ABPP ratio P51946_C244 ([1]; 200 μM, insitu, ramos): 1.1; isoTOP-ABPP ratio P31943_C267 ([2]; 200 μM, insitu, ramos): 1.4; isoTOP-ABPP ratio P61978_C132 ([3]; 200 μM, insitu, ramos): 1.2; isoTOP-ABPP ratio Q9NRG0_C55 ([5]; 200 μM, insitu, ramos): 1.5; isoTOP-ABPP ratio Q9NYL2_C22 ([6]; 200 μM, insitu, ramos): 1.2
C=CC(=O)N(Cc1cccnc1)c1cc(C(F)(F)F)cc(C(F)(F)F)c1 [compound 31]		0.7	0.9	12.8			isoTOP-ABPP ratio P31943_C267 ([2]; 200 μM, insitu, ramos): 0.9; isoTOP-ABPP ratio P61978_C132 ([3]; 200 μM, insitu, ramos): 1.1; isoTOP-ABPP ratio Q9NRG0_C55 ([5]; 200 μM, insitu, ramos): 1.6
C=CC(=O)Nc1cc(F)c(N2CCN(C(=O)OC(C)(C)C)CC2)c(F)c1 [compound 38]	1.0	1.2	1.0	20.0	1.0		
Cc1ccc(C=C(C#N)C(=O)NCCN2CCOCC2)cc1 [compound 41]	1.2	1.0	0.9	1.0	0.9	0.6	
CC1CCc2ccccc2N1C(=O)CCl (centres unmarked) [compound 45]	2.4	3.6	9.3		20.0	2.3	
O=C(CCl)Nc1cccc2ncccc12 [compound 51]	0.7	1.3	1.2	1.2	1.1		
